Test results as given in patent publication US10662193B2, “Carbazole and carboline compounds for use in the diagnosis, treatment, alleviation or prevention of disorders associated with amyloid or amyloid-like proteins” (AC IMMUNE SA, priority 2014, dated 2020).

Experiments:
[1] = test system: Aβ plaques on AD brain section; experiment: Assay 1: displacement of Compound B on human AD brain sections (fluorescence); assay type: binding
Method in brief: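 Frozen […] amygdala sections from Braak V-VI AD donors were preincubated with test compound at 250 μM in 50% ethanol for 20 min at room temperature, then with fluorescent Compound B at 1 μM for 20 min. Staining read at 365 nm excitation; plaques quantified by image analysis.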

[2] = molecular target: T1, in vitro aggregated Abeta1-42 (Homo sapiens, UniProt P05067); experiment: Assay 2 (filter trap): [3H]RefA competition and Ki on aggregated Abeta1-42 (selectivity tau versus Abeta); assay type: binding; conditions: Table 24; fold increase of the Ki on aggregated Abeta1-42 versus PHF
T1 construct: Abeta1-42 (Bachem, Switzerland) peptide films were re-suspended in 1% DMSO; purchased Bachem, Switzerland
T1 sequence (P05067 672-713 limits assumed): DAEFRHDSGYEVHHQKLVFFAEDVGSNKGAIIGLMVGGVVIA
Method: Recombinant human full-length Tau441 (flTau) was expressed in bacteria and purified in the laboratory of Professor Hilal Lashuel (EPFL, Switzerland). A solution of 8 μM (400 μg/mL) flTau in PBS, 10 μM DTT and 5 μM heparin (all from Sigma-Aldrich) was gently mixed (cradled) for 3 days at 37° C. Cradled flTau aggregates were used at a final concentration of 20 μg/mL in all binding assays. Abeta1-42 (Bachem, Switzerland) peptide films were re-suspended in 1% DMSO and diluted in PBS to a 33 μM (150 μg/mL) suspension that was sonicated until complete dissolution. Aggregation process was done at 37° C. for 24 hours. Aggregated Abeta1-42 was used at a concentration of 20 μg/mL in all binding assays.
AD brain-enriched PHF diluted 1/80 were incubated in the presence of [^3H]RefA at 10 nM and the example compounds of this invention at 2.5 μM (250× excess), for 45 minutes at 37° C. Samples were then analyzed by on GF/B filter plates as described above (in the section “[^3H]RefA radio-binding assay and determination of the dissociation constant (Kd)). Non-specific signal was determined again with an excess of un-labeled RefA and specific binding calculated by subtracting the non-specific signal from the total signal. […]

| Competition on AD brain section Aβ plaques (1 μM Compound B vs 250 μM compound) [1] [%] | Fold increase on Abeta1-42 vs PHF [2] | SMILES |
| --- | --- | --- |
| 0 | – | Cn1c2ccncc2c2ccc(Nc3ccc(F)c(F)c3)nc21 [Example 2] |
| 6 | 0.5 | Cn1c2ccncc2c2ccc(Nc3cccc(OCCF)c3)nc21 [Example 8] |
| 0 | 200 | Cn1c2ccncc2c2ccc(Nc3ccc(OC(F)F)cc3)nc21 [Example 9] |
